Measured values from ChEMBL document CHEMBL1201862, “PubChem BioAssay data set” (2004).
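Cells were grown in 96-well plates and exposed to each compound for 48 hours at five concentrations; endpoints were interpolated linearly between bracketing concentrations, or set to the highest concentration if not reached. GI50 is the concentration that inhibits growth by half.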 Active and inactive are the calls of the source. No stated cut-off is given here; in the data, active = GI50 up to about 1.1 µM and inactive = higher.

Key:
Assay in all cases: inhibition of tumour cell growth, NCI panel, 48 h
[1] = system: 786-0
[2] = system: A549
[3] = system: ACHN
[4] = system: CAKI-1
[5] = system: CCRF-CEM
[6] = system: COLO 205
[7] = system: DLD-1
[8] = system: DMS-114
[9] = system: DMS-273
[10] = system: EKVX
[11] = system: HCC 2998
[12] = system: HCT-116
[13] = system: HCT-15
[14] = system: HL-60
[15] = system: HOP-18
[16] = system: HOP-62
[17] = system: HOP-92
[18] = system: HT-29
[19] = system: IGROV-1
[20] = system: K562
[21] = system: KM-20L2
[22] = system: KM12
[23] = system: LOX IMVI
[24] = system: LXFL 529
[25] = system: M14
[26] = system: M19-MEL
[27] = system: MOLT-4
[28] = system: Malme-3M
[29] = system: NCI-H226
[30] = system: NCI-H23
[31] = system: NCI-H460
[32] = system: NCI-H522
[33] = system: OVCAR-3
[34] = system: OVCAR-4
[35] = system: OVCAR-5
[36] = system: OVCAR-8
[37] = system: RPMI-8226
[38] = system: SF-295
[39] = system: SF-539
[40] = system: SK-MEL-28
[41] = system: SK-MEL-2
[42] = system: SK-MEL-5
[43] = system: SK-OV-3
[44] = system: SN12C
[45] = system: SNB-19
[46] = system: SNB-75
[47] = system: SNB-78
[48] = system: SR
[49] = system: SW-620
[50] = system: TK-10
[51] = system: U-251
[52] = system: UACC-257
[53] = system: UACC-62
[54] = system: UO-31
[55] = system: XF498
[56] = system: A498
[57] = system: BT-549
[58] = system: DU-145
[59] = system: MCF7
[60] = system: MDA-MB-231
[61] = system: MDA-MB-435
[62] = system: MDA-N
[63] = system: PC-3
[64] = system: RXF 393
[65] = system: SF-268
[66] = system: T47D

Cc1cc2c(=O)cc(-c3ccc(O)cc3)oc2c(C(=O)O)c1C
GI50 [1]: > 100000 nM (inactive) | GI50 [2]: > 100000 nM (inactive) | GI50 [3]: > 100000 nM (inactive) | GI50 [4]: 22000 nM (inactive) | GI50 [5]: > 100000 nM (inactive) | GI50 [6]: > 100000 nM (inactive) | GI50 [7]: > 100000 nM (inactive) | GI50 [8]: > 100000 nM (inactive) | GI50 [9]: > 100000 nM (inactive) | GI50 [10]: > 100000 nM (inactive) | GI50 [11]: > 100000 nM (inactive) | GI50 [12]: > 100000 nM (inactive) | GI50 [13]: > 100000 nM | GI50 [14]: > 100000 nM (inactive) | GI50 [15]: > 100000 nM (inactive) | GI50 [16]: > 100000 nM (inactive) | GI50 [17]: > 100000 nM (inactive) | GI50 [18]: > 100000 nM (inactive) | GI50 [19]: > 100000 nM (inactive) | GI50 [20]: > 100000 nM (inactive) | GI50 [21]: > 100000 nM (inactive) | GI50 [22]: > 100000 nM (inactive) | GI50 [23]: > 100000 nM (inactive) | GI50 [24]: > 100000 nM (inactive) | GI50 [25]: > 100000 nM (inactive) | GI50 [26]: > 100000 nM (inactive) | GI50 [27]: > 100000 nM (inactive) | GI50 [28]: > 100000 nM (inactive) | GI50 [29]: > 100000 nM (inactive) | GI50 [30]: > 100000 nM (inactive) | GI50 [31]: > 100000 nM (inactive) | GI50 [32]: > 100000 nM (inactive) | GI50 [33]: > 100000 nM (inactive) | GI50 [34]: > 100000 nM (inactive) | GI50 [35]: > 100000 nM (inactive) | GI50 [36]: > 100000 nM (inactive) | GI50 [37]: > 100000 nM (inactive) | GI50 [38]: > 100000 nM (inactive) | GI50 [39]: > 100000 nM (inactive) | GI50 [40]: > 100000 nM (inactive) | GI50 [41]: > 100000 nM (inactive) | GI50 [42]: > 100000 nM (inactive) | GI50 [43]: > 100000 nM (inactive) | GI50 [44]: > 100000 nM (inactive) | GI50 [45]: > 100000 nM (inactive) | GI50 [46]: > 100000 nM (inactive) | GI50 [47]: > 100000 nM (inactive) | GI50 [48]: > 100000 nM (inactive) | GI50 [49]: > 100000 nM (inactive) | GI50 [50]: > 100000 nM (inactive) | GI50 [51]: > 100000 nM (inactive) | GI50 [52]: > 100000 nM (inactive) | GI50 [53]: > 100000 nM (inactive) | GI50 [54]: > 100000 nM (inactive) | GI50 [55]: > 100000 nM (inactive)

COc1cccc2c1C(=O)c1c(O)c3c(c(O)c1C2=O)C[C@@](O)(C(C)=O)C[C@@H]3OC1OC(C)C(O)C(N)C1Br (stereo partly specified)
GI50 [1]: 40.4 nM (active) | GI50 [56]: 133 nM (active) | GI50 [2]: 20.2 nM (active) | GI50 [3]: 21.3 nM (active) | GI50 [57]: 269 nM (active) | GI50 [4]: 13.9 nM (active) | GI50 [5]: 4.14 nM (active) | GI50 [6]: 418 nM (active) | GI50 [7]: 25.9 nM (active) | GI50 [8]: 31.6 nM (active) | GI50 [9]: 7.8 nM (active) | GI50 [58]: 47.5 nM (active) | GI50 [10]: 805 nM (active) | GI50 [11]: 111 nM (active) | GI50 [12]: 7.92 nM (active) | GI50 [13]: 132 nM | GI50 [14]: 9.71 nM (active) | GI50 [15]: 40.4 nM (active) | GI50 [16]: 14.7 nM (active) | GI50 [17]: 48.6 nM (active) | GI50 [18]: 152 nM (active) | GI50 [19]: 266 nM (active) | GI50 [20]: 49.5 nM (active) | GI50 [21]: 232 nM (active) | GI50 [22]: 140 nM (active) | GI50 [23]: 20.8 nM (active) | GI50 [24]: 60.1 nM (active) | GI50 [25]: 68.1 nM (active) | GI50 [26]: 116 nM (active) | GI50 [59]: 3.85 nM (active) | GI50 [60]: 233 nM (active) | GI50 [61]: 220 nM (active) | GI50 [62]: 208 nM (active) | GI50 [27]: 1 nM (active) | GI50 [28]: 76.9 nM (active) | GI50 [29]: 16.5 nM (active) | GI50 [30]: 27 nM (active) | GI50 [31]: 1 nM (active) | GI50 [32]: 65.2 nM (active) | GI50 [33]: 136 nM (active) | GI50 [34]: 185 nM (active) | GI50 [35]: 280 nM (active) | GI50 [36]: 55.7 nM (active) | GI50 [63]: 138 nM (active) | GI50 [37]: 15.6 nM (active) | GI50 [64]: 213 nM (active) | GI50 [65]: 101 nM (active) | GI50 [38]: 44.2 nM (active) | GI50 [39]: 58.3 nM (active) | GI50 [40]: 318 nM (active) | GI50 [41]: 267 nM (active) | GI50 [42]: 68.9 nM (active) | GI50 [43]: 45 nM (active) | GI50 [44]: 28.1 nM (active) | GI50 [45]: 41.2 nM (active) | GI50 [46]: 2.9 nM (active) | GI50 [47]: 105 nM (active) | GI50 [48]: 4.97 nM (active) | GI50 [49]: 17.7 nM (active) | GI50 [66]: 58.5 nM (active) | GI50 [50]: 158 nM (active) | GI50 [51]: 29.5 nM (active) | GI50 [52]: 155 nM (active) | GI50 [53]: 105 nM (active) | GI50 [54]: 95.3 nM (active) | GI50 [55]: 129 nM (active)
